Measured values from patent US10752617B2 (GALDERMA RESEARCH & DEVELOPMENT, priority 2014, dated 2020).

target: T1, GAL4-RORγ (GAL4 DBD fused to the ROR gamma ligand-binding domain) (Homo sapiens, UniProt P51449); assay: GAL4-RORγ transactivation (luciferase reporter, HG5LN HeLa line); assay type: cell-based; settings: HG5LN HeLa cells, 18 hours incubation, luciferase luminescence, read-out: IC50 hRORg
T1 construct: expressed in transfected cells; host or cells: HG5LN (HeLa line with GAL4-responsive luciferase reporter)
T1 sequence (P51449 269-508 limits assumed): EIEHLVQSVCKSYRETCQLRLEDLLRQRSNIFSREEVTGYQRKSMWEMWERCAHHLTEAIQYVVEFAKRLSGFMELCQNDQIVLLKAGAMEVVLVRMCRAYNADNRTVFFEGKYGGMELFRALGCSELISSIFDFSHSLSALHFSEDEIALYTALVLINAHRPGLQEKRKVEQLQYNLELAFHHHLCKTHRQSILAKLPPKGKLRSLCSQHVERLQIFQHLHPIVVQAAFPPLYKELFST
Excerpt: In the tables described above, the median inhibitory concentrations IC50 for the compounds belonging to formula (I) according to the invention have been given according to the following models:
GAL4-RORγ Transactivation
The RORγ transactivation model was developed from the line HG5LN, which is a HeLa line that stably expresses a luciferase reporter gene controlled by a pentamer of the GAL4 recognition domain of yeast and of a β-globin promoter. The HG5LN line was stably transfected by the DNA-binding domain (DBD) of GAL4 fused to the ROR gamma ligand-binding domain (LBD). Molecules that inhibit the ROR gamma constitutive activity reduce the luciferase expression, thus leading to a reduction in the emitted luminescence.
The cells are seeded in 384-well plates (5000 cells in 45 μL/well of culture medium containing 10% fetal calf serum) and incubated for 4 hours at 37° C., 5% CO2. 5 μL of the test molecules (compounds described in the tables described above) are then added to each well and the plates are incubated for 18 hours at a temperature of 37° C. under 5% of CO2. 20 μL of luciferase substrate (Promega) are added to each well and the luminescence emitted is read by a microplate reader.
The luminescence units (“RLU”) are normalized by positive controls (“POS” containing a saturated concentration of N-(2,2,2-trifluoroethyl)-N-[4-[2,2,2-trifluoro-1-hydroxy-1-(trifluoromethyl)ethyl]phenyl])benzenesulfonamide and negative controls (“NEG” containing DMSO): % inhibition=((RLU−NEG)*100)/(POS−NEG). The IC50 values are calculated from a 4-parameter logistic model using the XLFit software (IDBS).

First: CCc1ccc(N(CC(C)C)S(=O)(=O)c2ccc3c(cnn3C3CCOCC3)c2)cc1 [Compound 38, 1-(tetrahydropyran-4-yl)-1H-indazole-5-sulfonic acid (4-ethylphenyl)isobutylamide]
Second: CCc1ccc(N(CC(C)C)S(=O)(=O)c2ccc3c(cnn3C3CCN(C(C)=O)C3)c2)cc1 (stereo not shown) [Compound 17, 1-(1-acetylpyrrolidin-3-yl)-1H-indazole-5-sulfonic acid (4-ethylphenyl)isobutylamide]
The IC50 of the first is higher: over 1 µM for the first, 0.1 to 1 µM for the second.

CC(C)CN(c1ccc(F)cc1)S(=O)(=O)c1ccc2c(cnn2CC2CCOCC2)c1 [Compound 46, 1-(tetrahydropyran-4-ylmethyl)-1H-indazole-5-sulfonic acid (4-fluorophenyl)isobutylamide] and CC(C)CN(c1ccc(C(F)(F)F)cc1)S(=O)(=O)c1ccc2c(cnn2CC2CCOCC2)c1 [Compound 59, 1-(tetrahydropyran-4-ylmethyl)-1H-indazole-5-sulfonic acid isobutyl(4-trifluoromethylphenyl)amide] cannot be ordered by IC50: over 1 µM for the first, over 1 µM for the second.

First: CC(C)CN(c1cc(Cl)ccc1F)S(=O)(=O)c1ccc2c(cnn2CC2CCOCC2)c1 [Compound 10, 1-(tetrahydropyran-4-ylmethyl)-1H-indazole-5-sulfonic acid (5-chloro-2-fluorophenyl)isobutylamide]
Second: Cc1c(F)cccc1N(CC(C)C)S(=O)(=O)c1ccc2c(cnn2CC2CCOCC2)c1 [Compound 43, 1-(tetrahydropyran-4-ylmethyl)-2H-indazole-5-sulfonic acid (3-fluoro-2-methylphenyl)isobutylamide]
The IC50 of the first is higher: over 1 µM for the first, 0.1 to 1 µM for the second.

CCc1ccc(N(CC(C)C)S(=O)(=O)c2ccc3c(cnn3Cc3ccccc3)c2)cc1 [Compound 23, 1-benzyl-N-(4-ethylphenyl)-N-isobutyl-1H-indazole-5-sulfonamide] and CCc1ccc(N(CC(C)C)S(=O)(=O)c2ccc3c(cnn3CC3CN(C(C)=O)C3)c2)cc1 [Compound 19] cannot be ordered by IC50: over 1 µM for the first, over 1 µM for the second.

First: Cc1ccccc1N(CC(C)C)S(=O)(=O)c1ccc2c(cnn2CC2CCOCC2)c1 [Compound 48, 1-(tetrahydropyran-4-ylmethyl)-1H-indazole-5-sulfonic acid isobutyl-o-tolylamide]
Second: Cc1ccc(C)c(N(CC(C)C)S(=O)(=O)c2ccc3c(cnn3CC3CCOCC3)c2)c1 [Compound 11, 1-(tetrahydropyran-4-ylmethyl)-1H-indazole-5-sulfonic acid (2,5-dimethylphenyl)isobutylamide]
The IC50 of the first is higher: over 1 µM for the first, 0.1 to 1 µM for the second. The second is the more potent here.

CCc1ccc(N(CC2COC2)S(=O)(=O)c2ccc3c(cnn3CC3CCOCC3)c2)cc1 [Compound 16, 1-(tetrahydropyran-4-ylmethyl)-1H-indazole-5-sulfonic acid (4-ethylphenyl)oxetan-3-ylmethylamide] and CCc1ccc(N(CC2CC2)S(=O)(=O)c2ccc3c(cnn3CC3CCOCC3)c2)cc1 [Compound 31, N-(cyclopropylmethyl)-N-(4-ethylphenyl)-1-((tetrahydro-2H-pyran-4-yl)methyl)-1H-indazole-5-sulfonamide] cannot be ordered by IC50: over 1 µM for the first, over 1 µM for the second.

CCc1ccc(N(CC(C)C)S(=O)(=O)c2ccc3c(c2)c(CO)nn3CC2CCOCC2)cc1 [Compound 14, 3-hydroxymethyl-1-(tetrahydropyran-4-ylmethyl)-1H-indazole-5-sulfonic acid (4-ethylphenyl)isobutylamide] and CCc1ccc(N(CC(C)C)S(=O)(=O)c2ccc3c(c2)c(OCC2CCOCC2)nn3CC2CCOCC2)cc1 [Compound 18, 3-(tetrahydropyran-4-ylmethoxy)-1-(tetrahydropyran-4-ylmethyl)-1H-indazole-5-sulfonic acid (4-ethylphenyl)isobutylamide] cannot be ordered by IC50: over 1 µM for the first, over 1 µM for the second.

Cc1cc(C#N)ccc1N(CC(C)C)S(=O)(=O)c1ccc2c(cnn2CC2CCOCC2)c1 [Compound 57, 1-(tetrahydropyran-4-ylmethyl)-1H-indazole-5-sulfonic acid (4-cyano-2-methylphenyl)isobutylamide] and Cc1ccc(N(CC(C)C)S(=O)(=O)c2ccc3c(cnn3CC3CCOCC3)c2)c(C#N)c1 [Compound 70, 1-(tetrahydropyran-4-ylmethyl)-1H-indazole-5-sulfonic acid (2-cyano-4-methylphenyl)isobutylamide] fall in the same range of IC50: 0.1 to 1 µM for the first, 0.1 to 1 µM for the second.

CCc1ccc(N(CC2CCOCC2)S(=O)(=O)c2ccc3c(cnn3CC3CCOCC3)c2)cc1 [Compound 5, 1-(tetrahydropyran-4-ylmethyl)-1H-indazole-5-sulfonic acid (4-ethylphenyl)(tetrahydropyran-4-ylmethyl)amide] and CCc1ccc(N(C2CCC2)S(=O)(=O)c2ccc3c(cnn3CC3CCOCC3)c2)cc1 [Compound 41, 1-(tetrahydropyran-4-ylmethyl)-1H-indazole-5-sulfonic acid cyclobutyl(4-ethylphenyl)amide] cannot be ordered by IC50: over 1 µM for the first, over 1 µM for the second.

Going from CCc1ccc(N(CC(C)C)S(=O)(=O)c2ccc3c(C=C4CCOCC4)n[nH]c3c2)cc1 [Compound 62, 3-(tetrahydropyran-4-ylidenemethyl)-1H-indazole-6-sulfonic acid (4-ethylphenyl)isobutylamide] to CCc1ccc(N(CC(C)C)S(=O)(=O)c2ccc3c(CN4C[C@@H](C)O[C@@H](C)C4)n[nH]c3c2)cc1 [Compound 65, 3-((cis)-2,6-dimethylmorpholin-4-ylmethyl)-1H-indazole-6-sulfonic acid (4-ethylphenyl)isobutylamide], the IC50 rises from under 0.1 µM to over 1 µM.

CCc1ccc(N(CC(C)C)S(=O)(=O)c2cc(C(=O)OC)c3c(cnn3CC3CCOCC3)c2)cc1 [Compound 74, methyl 5-[(4-ethylphenyl)isobutylsulfamoyl]-1-(tetrahydropyran-4-ylmethyl)-1H-indazole-7-carboxylate] and CCc1ccc(N(C(C)C)S(=O)(=O)c2ccc3c(cnn3CC3CCOCC3)c2)cc1 [Compound 29, N-(4-ethylphenyl)-N-isopropyl-1-((tetrahydro-2H-pyran-4-yl)methyl)-1H-indazole-5-sulfonamide] cannot be ordered by IC50: over 1 µM for the first, over 1 µM for the second.

CCc1ccc(N(CC(C)C)S(=O)(=O)c2ccc3c(cnn3CC3CCN(C(C)=O)C3)c2)cc1 (stereo not shown) [Compound 20, 1-((1-acetylpyrrolidin-3-yl)methyl)-N-(4-ethylphenyl)-N-isobutyl-1H-indazole-5-sulfonamide] and CCCN(c1ccc(CC)cc1)S(=O)(=O)c1ccc2c(cnn2CC2CCOCC2)c1 [Compound 8, 1-(tetrahydropyran-4-ylmethyl)-1H-indazole-5-sulfonic acid (4-ethylphenyl)propyl] cannot be ordered by IC50: over 1 µM for the first, over 1 µM for the second.

CC(C)CN(c1ccc(C(C)C)cn1)S(=O)(=O)c1ccc2c(cnn2CC2CCOCC2)c1 [Compound 50, 1-(tetrahydropyran-4-ylmethyl)-1H-indazole-5-sulfonic acid isobutyl(5-isopropylpyridin-2-yl)amide] and COc1cccc(N(CC(C)C)S(=O)(=O)c2ccc3c(cnn3CC3CCOCC3)c2)c1 [Compound 25, 1-(tetrahydropyran-4-ylmethyl)-1H-indazole-5-sulfonic acid (3-methoxyphenyl)isobutylamide] cannot be ordered by IC50: over 1 µM for the first, over 1 µM for the second.

First: Cc1cc(C)cc(N(CC(C)C)S(=O)(=O)c2ccc3c(cnn3CC3CCOCC3)c2)c1 [Compound 28, 1-(tetrahydropyran-4-ylmethyl)-1H-indazole-5-sulfonic acid (3,5-dimethylphenyl)isobutylamide]
Second: CCCCc1ccc(N(CC(C)C)S(=O)(=O)c2ccc3c(cnn3CC3CCOCC3)c2)c(C)c1 [Compound 13, 1-(tetrahydropyran-4-ylmethyl)-1H-indazole-5-sulfonic acid (4-butyl-2-methylphenyl)isobutylamide]
The IC50 of the first is higher: over 1 µM for the first, 0.1 to 1 µM for the second. The second is the more potent here.

First: CCc1ccc(N(CC(C)C)S(=O)(=O)c2ccc3c(Br)nn(C4CCCCO4)c3c2)cc1 (stereo not shown) [Compound 4, 3-bromo-1-(tetrahydropyran-2-yl)-1H-indazole-6-sulfonic acid (4-ethylphenyl)isobutylamide]
Second: CCc1ccc(N([C@H](C)CC)S(=O)(=O)c2ccc3c(cnn3CC3CCOCC3)c2)cc1 [Compound 2, 1-(tetrahydropyran-4-ylmethyl)-1H-indazole-5-sulfonic acid ((R)-sec-butyl)(4-ethylphenyl)amide]
The IC50 of the first is higher: over 1 µM for the first, 0.1 to 1 µM for the second.

CC(C)CN(c1ccc(OC(F)(F)F)cc1)S(=O)(=O)c1ccc2c(cnn2CC2CCOCC2)c1 [Compound 49, 1-(tetrahydropyran-4-ylmethyl)-1H-indazole-5-sulfonic acid (4-trifluoromethoxyphenyl)isobutylamide] gave an IC50 of over 1 µM.
